Results: PMC5995442, “Drug discovery with an RBM20 dependent titin splice reporter identifies cardenolides as lead structures to improve cardiac filling” (PLoS ONE, 2018)
Entries after “also recorded” stand apart in the source; their conditions may differ. Read-outs that look alike come from different tables or passages of the source.

Legend:
[1] = Dual luciferase splicing reporter assay (DLR assay), RBM20 co-transfected; type: cell-based, human; conditions: human; RBM20 titin reporter, N = 3; read-out: cell viability below which the splice reporter readout is affected
From the text: (§1) The objective of our study was to identify and evaluate small molecules with the potential to modulate alternative splicing via an unbiased chemical high-throughput screening approach. Using transient transfection of a dual luciferase splicing reporter assay (DLR-assay) in HEK293.EBNA cells and a RBM20 expression construct, we investigated >34.000 substances for their effect on alternative exon exclusion from our RBM20 dependent titin PEVK4-13 splicing reporter. For the primary screen (pilot screen), each compound was tested at 10 μM (single point) and compared to an untreated control. Positive hits leading to differential exon usage (exceeding three standard deviations) were picked for independent validation in 9 serial 2-fold dilutions starting at 20 μM. Compounds that produced a concentration dependent effect were validated manually in the 96-well format and cytotoxicity was evaluated. To minimize the detection of false positives, we excluded compounds with structural homology to each luciferase’s natural substrate. To determine the EC50 of candidates we calculated dose response curves using a non-linear least-squares fitting routine available within the GNUPLOT package (accessible online: http://ic50.tk/index.html). […] Compounds that produced a concentration depend effect in the DLR-assay and altered the alternative transcript levels were regarded as validated alternative splicing modulators.
(§2) Cells transfected were at a confluency of 50-60%.
(§3) 5000 HEK293.EBNA cells were seeded in clear bottom, white 384-well plates (Corning by Sigma-Aldrich Chemie GmbH, Munich, Germany) using an automated cell dispenser (Biotek, Bad Friedrichshall, Germany). 24 h after cell seeding the expression plasmids were delivered using a Freedom EVO® robotic workstation (TECAN, Maennedorf, Switzerland) equipped with a MultiChannel Arm™. Cells were transiently transfected with 45 ng plasmid DNA ([…] and 40 ng RBM20 or 24 ng of the negative control pcDNA3.1 ad 45 ng with bacterial expression plasmid pBSSK). Compounds were added to the plates the following day using the same robotic platform. Luciferase activity was determined using Dual-Glo® Luciferase Assay System (Promega GmbH, Mannheim, Germany) on an Infinite® M1000 Pro (TECAN, Maennedorf, Switzerland) plate reader around 60 hours post-transfection. Assay robustness was evaluated by calculation z’ scores using an online tool provided by the Screening Unit at FMP Berlin (http://www.screeningunit-fmp.net/tools/z-prime.php).

[2] = test system: RBM20 dependent titin PEVK4-13 splicing reporter; assay: as above; type: cell-based, human; conditions: for IC50: Homo sapiens
From the text: as §1, §2, §3

HEK293.EBNA cells = assay: Cell viability, resazurin based staining (PrestoBlue); set-up: species or system human; conditions: for IC50: Homo sapiens, HEK293-EBNA
From the text: as §2

[3] = test system: titin minigene TTN Ex241-43 transcripts; assay: RT-PCR / RT-qPCR of transcripts from titin minigene TTN Ex241-43 (I96-98); type: cell-based, human
From the text: The objective of our study was to identify and evaluate small molecules with the potential to modulate alternative splicing via an unbiased chemical high-throughput screening approach. Using transient transfection of a dual luciferase splicing reporter assay (DLR-assay) in HEK293.EBNA cells and a RBM20 expression construct, we investigated >34.000 substances for their effect on alternative exon exclusion from our RBM20 dependent titin PEVK4-13 splicing reporter. For the primary screen (pilot screen), each compound was tested at 10 μM (single point) and compared to an untreated control. Positive hits leading to differential exon usage (exceeding three standard deviations) were picked for independent validation in 9 serial 2-fold dilutions starting at 20 μM. Compounds that produced a concentration dependent effect were validated manually in the 96-well format and cytotoxicity was evaluated. To minimize the detection of false positives, we excluded compounds with structural homology to each luciferase’s natural substrate. To determine the EC50 of candidates we calculated dose response curves using a non-linear least-squares fitting routine available within the GNUPLOT package (accessible online: http://ic50.tk/index.html). We evaluated the effect on splice activity on the RNA level by RT-qPCR of isoforms generated from a titin minigene containing TTN Ex241-43 (corresponding to TTN I-band exon I96-98) in the presence of the potential splice modulators. […]
Total RNA from HEK293.EBNA cells was extracted using RNeasy Micro Kit (Qiagen, Hilden, Germany) according to the manufacturer’s instructions. […] Quantitative RT-PCR was performed using SYBRGreen master mix (Applied Biosystems by Thermo Fisher Scientific Inc., USA) on a 7900 HT RT-cycler (Applied Biosystems by Thermo Fisher Scientific, Inc., USA). […] To quantification gene expression, we used the ΔΔCT method normalized to 18S or to the alternative transcripts generated from the splicing reporter. PSI values were calculated as ratio of unspliced and spliced reporter transcript. […]

[4] = biological target: Na+/K+ ATPase human erythrocytes; set-up: method as in PMID 11072868; conditions: cited from earlier work
RBM20 protein levels = assay: RBM20 protein expression by immunoblot in co-transfected HEK293 cells; type: cell-based, human; conditions: 0.235 μM digoxin, co-transfected HEK293 cells
Experimental: For immunodetection, HEK293.EBNA samples were harvested by rinsing them of the cell culture substrate using PBS at 37°C and subsequently used for downstream processing or snap frozen in liquid nitrogen. For protein extraction samples were suspended in RIPA buffer (50 mM Tris pH 8.0, 150 mM NaCl, 1% NP-40, 0.25% sodium deoxycholate, 1.0 mM EDTA; 0.1% SDS) and lysed via sonication with 20 bursts at 70% energy using a VialTweeter (Hielscher Ultrasonics GmbH, Teltow, Germany). Protein concentration was estimated after 20’ precipitation of cell debris at 13,000xg for 20 min at 4°C using BCA assay (Life Technologies GmbH, Darmstadt, Germany [23225]). Samples were kept cool at any time. Lysates were separated by SDS-PAGE [14] and blotted on PVDF membranes. Blotted antigens were probed with mouse anti-c-myc 9E10 ([M5546], Sigma-Aldrich Chemie GmbH, Munich, Germany) tag antibody at 1:2000 and detected using a sheep anti-mouse IgG-HRP (GE Healthcare Europe GmbH, Freiburg, Germany [NA9310V]) conjugate 1:5000 follow by visualization with AceGlow™ (VWR PEQL37) on a FUSION FX7 CCD camera system (Vilber Lourmat Deutschland GmbH, Eberhardzell, Germany).

in vitro = conditions: human
Experimental: (§4) For transfection 25000 cells/well were seeded on 96-well Nunc F96 MicroWell™ plates (Life Technologies GmbH, Darmstadt, Germany) and transfected with a total of 200 ng of plasmid DNA of which 1 ng was splice reporter plus a corresponding amount of RBM20, RBFOX1 or control plasmid (pcDNA3.1) in a 20x molar excess. To deliver plasmid DNA we used the 40 kDa linear polyethylenimine (Polysciences Europe GmbH, Hirschberg, Germany) at a 1:3 ratio (DNA:PEI40). Cells transfected were at a confluency of 50-60%. Compounds were applied 24 h post-transfection at a final DMSO concentration of 1%. Luciferase activity was measured 60 hours post-transfection using the Dual-Luciferase® Reporter Assay System (Promega GmbH, Mannheim, Germany) on an Infinite® M200 Pro (TECAN, Maennedorf, Switzerland) plate reader. Ratios of firefly to renilla luciferase activity were normalized to the control (pcDNA3.1) without the splicing factor expression construct. Cell viability was measured 60 h post-transfection using a resazurin based staining of metabolically active cells (PrestoBlue®, Life Technologies GmbH, Darmstadt, Germany).
(§5) To evaluate the specificity of the splice effect, we generated an independent splice reporter based on formin-like 3 (FMNL3) and its splice factor RBFOX1 (S5 Fig). […] To exclude an unspecific effect of cell death on RBM20 dependent splicing, we used the steroidal homolog digitonin to induce cell death.

[5] = test system: RBFOX1 dependent splicing of FMNL3; assay: cells
Experimental: as §4, §5

[6] = HEK293 cells, 60 h post-transfection, RBM20/titin reporter transfected, read-out: Viability IC50

Row | SMILES | viability at 36 h [1] [%] | effect on RBM20-mediated titin splicing (in words) ([2]; DLR assay, HEK293) | IC50 ([2]; FLuc/RLuc ratio, HEK293 cells, 96-well format, inset table of figure, read-out: Splicing IC50) [nM] | IC50 (HEK293.EBNA cells; [6]) [nM] | effect on splicing on the mRNA level (in words) ([3]; RT-PCR of minigene, HEK293) | IC50 [4] [nM] | Splicing Hill Coeff. [2] | effect on RBM20-mediated titin splicing (in words) [2] | IC50 ([2]; HEK293, read-out: IC50 Splicing HEK293 cells) [nM] | IC50 (HEK293.EBNA cells; HEK293, read-out: IC50 viability (half-maximal lethal dose)) [nM] | Viability Hill Coeff. (HEK293.EBNA cells; dose response fit, head prints [μM], fits IC50 only) | Viability Max (HEK293.EBNA cells; fit maximum of relative viability, head prints [μM], fits IC50 only) | intron retention / mRNA maturation (in words) ([3]; HEK293 transfected with RBM20 and minigene I96-98) | RBM20 protein levels reduced to (RBM20 protein levels) [%] | viability at 36 h (in vitro) [%] | IC50 ([5]; Homo sapiens, HEK293, read-out: FMNL3/RBFOX1 Splicing IC50, FMNL3 exons 25-26 reporter co-transfected with RBFOX1, HEK293) [nM] | effect on FMNL3 splicing (in words) ([5]; concentrations of up to 20x the half-maximal lethal dose)
1 | C[C@@H]1CC[C@@]2(OC1)O[C@H]1[C@@H](O)[C@H]3[C@@H]4CC[C@H]5C[C@@H](O[C@@H]6O[C@H](CO)[C@H](O[C@@H]7O[C@H](CO)[C@@H](O)[C@H](O[C@@H]8OC[C@@H](O)[C@H](O)[C@H]8O)[C@H]7O[C@@H]7O[C@H](CO)[C@H](O)[C@H](O[C@@H]8O[C@H](CO)[C@@H](O)[C@H](O)[C@H]8O)[C@H]7O)[C@H](O)[C@H]6O)[C@H](O)C[C@]5(C)[C@H]4CC[C@]3(C)[C@H]1[C@@H]2C [Digitonin] | < 20 | little effect at the highest doses only; also recorded: do not interfere with RBM20 dependent splicing | 14100 ± 3980 | 2670 ± 212 | no effect on the mRNA level |  |  |  |  |  |  |  |  |  |  |  | 
2 | C[C@H]1O[C@@H](O[C@H]2[C@@H](O)C[C@H](O[C@H]3[C@@H](O)C[C@H](O[C@H]4CC[C@@]5(C)[C@H](CC[C@@H]6[C@@H]5C[C@@H](O)[C@]5(C)[C@@H](C7=CC(=O)OC7)CC[C@]65O)C4)O[C@@H]3C)O[C@@H]2C)C[C@H](O)[C@@H]1O [Digoxin] |  |  |  | 132 ± 6.6 |  | 0.39 | 2.8711 ± 0.6588 | efficiently inhibit RBM20 mediated splicing | 153 | 132 | 2.2906 ± 0.2256 | 1.0089 ± 0.0119 | does not cause intron retention | 10 | < 30 | 2600 | not affected
